Data taken from patent publication US10392368B2, “Pyrazolo and triazolo bicyclic compounds as JAK kinase inhibitors” (THERAVANCE BIOPHARMA R&D IP, LLC, priority 2017, dated 2019).

Columns and labels:
JAK2 = biological target: T1, JAK2 (Homo sapiens, UniProt O60674); test: Biochemical JAK2 kinase assay (LanthaScreen); conditions: for Ki: read-out: JAK 2 (pKi) (converted)
T1 construct: GST; purchased Life Technologies
Summary of the method: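 pKi values derive from pIC50 via Cheng-Prusoff, with IC50 from a 4-parameter fit of percent-inhibition TR-FRET data using Tb-anti-pSTAT1 (pTyr701) detection. Compound, GST-JAK2 and GFP-STAT1 substrate were pre-incubated 1 h, then ATP started a 1 h ambient reaction (HEPES pH 7.5, 10 mM MgCl2, 1% DMSO).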

[1] = tested on: oxazolone-induced colitis; test: Mouse model of oxazolone-induced colitis; format: in vivo
Method: Oxazolone-induced colitis is an experimental model that has a histological resemblance to human ulcerative colitis (Heller et al. Immunology, 2002, 17, 629-638). Adult BALB/C mice from Harlan were used in the assay. On day 1, animals were lightly anesthetized with isoflurane and the hairs between the shoulder were carefully removed before oxazolone (4%, 150 μL, 4:1 acetone:olive oil formulation) or vehicle solution was slowly applied for skin sensitization. Seven days after skin sensitization, the mice were fasted around 6 hours prior, anesthetized with ketamine/xylazine injection, and a 1 mL syringe equipped with a 3.5-F catheter, filled with oxazolone solution, was inserted carefully about 4 cm into the colon of the mouse. Following insertion, 50 μL of the oxazolone solution (0.8% in 1:1 ethanol:water formulation) was injected very slowly (over 30 sec using an injection pump) into the colon. Drug treatment (PO, QD or BID or TID) or vehicle was initiated a day prior to the oxazolone intrarectal (IR) challenge. Two-day post oxazolone intrarectal challenge, the disease was assessed by treatment-blinded experimenters for each mouse according to the criteria score: stool consistency score (0, normal; 2, loose; 4, diarrhea), gross bleeding score (0, absence; 2, blood tinged; 4, presence); Combined stool score endpoint=stool consistency score+stool blood score.
Select compounds were tested in the assay.

Tyk2 = biological target: T2, Tyk2 (Homo sapiens, UniProt P29597); test: Biochemical Tyk2 kinase assay (LanthaScreen); conditions: for Ki: read-out: Tyk 2 (pKi) (converted)
T2 construct: GST; purchased Life Technologies
Summary of the method: (§1)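 TR-FRET read-out: terbium anti-pSTAT1 (pTyr701) antibody, 2 nM, with 10 mM EDTA quench, emission ratio 520/495 nm. GST-JAK phosphorylates GFP-STAT1 peptide for 1 h at ambient temperature after 1 h compound pre-incubation. pIC50 from dose-response converted to pKi by Cheng-Prusoff.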

JAK1 = biological target: T3, JAK1 (Homo sapiens, UniProt P23458); test: Biochemical JAK1 kinase assay (LanthaScreen); conditions: for Ki: read-out: JAK 1 (pKi) (converted)
T3 construct: GST; purchased Life Technologies
Summary of the method: as §1

[2] = tested on: IL-2 stimulated pSTAT5 in Tall-1 T cells; test: Cellular JAK3 potency assay: inhibition of IL-2 stimulated pSTAT5 in Tall-1 T cells; format: cell-based, human; conditions: for IC50: Homo sapiens, TALL-1, IL-2 stimulated pSTAT5 in Tall-1 T cells, read-out: Tall-1 (pIC50) (converted)
Summary of the method: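 Tall-1 human T cells were preincubated with compound for 1 h at 37° C, then stimulated with IL-2 (300 ng/ml final) for 30 min. STAT5 phosphorylation in lysates was read by AlphaLisa bead emission, and IC50 from inhibition curves is given as pIC50 (mean±SD).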

JAK3 = biological target: T4, JAK3 (Homo sapiens, UniProt P52333); test: Biochemical JAK3 kinase assay (LanthaScreen); set-up: GST; purchased Life Technologies; conditions: for Ki: read-out: JAK 3 (pKi) (converted)
T4 sequence (P52333 1-1124): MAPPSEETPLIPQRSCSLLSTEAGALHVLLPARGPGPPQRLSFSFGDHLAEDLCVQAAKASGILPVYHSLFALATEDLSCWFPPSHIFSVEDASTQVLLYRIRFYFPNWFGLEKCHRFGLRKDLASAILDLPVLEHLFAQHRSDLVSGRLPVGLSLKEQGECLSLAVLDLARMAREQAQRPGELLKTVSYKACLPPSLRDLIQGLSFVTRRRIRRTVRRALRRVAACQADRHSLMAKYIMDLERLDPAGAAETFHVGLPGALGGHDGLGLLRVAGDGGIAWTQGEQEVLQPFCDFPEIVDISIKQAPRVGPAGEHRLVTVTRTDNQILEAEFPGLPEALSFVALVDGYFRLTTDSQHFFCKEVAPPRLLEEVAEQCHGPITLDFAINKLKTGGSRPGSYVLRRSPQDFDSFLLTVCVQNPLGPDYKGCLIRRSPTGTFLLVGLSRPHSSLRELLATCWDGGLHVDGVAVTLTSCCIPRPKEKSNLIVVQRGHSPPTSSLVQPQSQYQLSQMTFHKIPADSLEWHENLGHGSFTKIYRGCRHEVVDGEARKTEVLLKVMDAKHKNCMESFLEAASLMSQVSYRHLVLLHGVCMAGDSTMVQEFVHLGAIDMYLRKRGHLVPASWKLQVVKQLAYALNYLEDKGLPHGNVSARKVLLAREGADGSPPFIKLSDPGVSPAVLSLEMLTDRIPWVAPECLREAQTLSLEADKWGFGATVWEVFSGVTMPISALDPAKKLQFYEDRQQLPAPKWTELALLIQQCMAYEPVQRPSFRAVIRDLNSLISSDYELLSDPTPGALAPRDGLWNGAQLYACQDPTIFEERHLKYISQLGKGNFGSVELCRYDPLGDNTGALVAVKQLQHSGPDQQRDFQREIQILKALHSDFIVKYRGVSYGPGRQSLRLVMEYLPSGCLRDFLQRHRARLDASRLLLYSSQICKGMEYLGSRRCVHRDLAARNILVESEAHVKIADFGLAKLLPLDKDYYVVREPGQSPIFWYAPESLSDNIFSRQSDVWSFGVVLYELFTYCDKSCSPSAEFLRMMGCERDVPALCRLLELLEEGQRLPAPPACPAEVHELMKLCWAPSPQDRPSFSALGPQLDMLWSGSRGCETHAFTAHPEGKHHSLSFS
Summary of the method: as §1

[3] = selectivity: difference of pKi JAK3 and pKi JAK1
[4] = IL-2 stimulated pSTAT5 in Tall-1 T cells

T3 sequence (P23458 whole entry): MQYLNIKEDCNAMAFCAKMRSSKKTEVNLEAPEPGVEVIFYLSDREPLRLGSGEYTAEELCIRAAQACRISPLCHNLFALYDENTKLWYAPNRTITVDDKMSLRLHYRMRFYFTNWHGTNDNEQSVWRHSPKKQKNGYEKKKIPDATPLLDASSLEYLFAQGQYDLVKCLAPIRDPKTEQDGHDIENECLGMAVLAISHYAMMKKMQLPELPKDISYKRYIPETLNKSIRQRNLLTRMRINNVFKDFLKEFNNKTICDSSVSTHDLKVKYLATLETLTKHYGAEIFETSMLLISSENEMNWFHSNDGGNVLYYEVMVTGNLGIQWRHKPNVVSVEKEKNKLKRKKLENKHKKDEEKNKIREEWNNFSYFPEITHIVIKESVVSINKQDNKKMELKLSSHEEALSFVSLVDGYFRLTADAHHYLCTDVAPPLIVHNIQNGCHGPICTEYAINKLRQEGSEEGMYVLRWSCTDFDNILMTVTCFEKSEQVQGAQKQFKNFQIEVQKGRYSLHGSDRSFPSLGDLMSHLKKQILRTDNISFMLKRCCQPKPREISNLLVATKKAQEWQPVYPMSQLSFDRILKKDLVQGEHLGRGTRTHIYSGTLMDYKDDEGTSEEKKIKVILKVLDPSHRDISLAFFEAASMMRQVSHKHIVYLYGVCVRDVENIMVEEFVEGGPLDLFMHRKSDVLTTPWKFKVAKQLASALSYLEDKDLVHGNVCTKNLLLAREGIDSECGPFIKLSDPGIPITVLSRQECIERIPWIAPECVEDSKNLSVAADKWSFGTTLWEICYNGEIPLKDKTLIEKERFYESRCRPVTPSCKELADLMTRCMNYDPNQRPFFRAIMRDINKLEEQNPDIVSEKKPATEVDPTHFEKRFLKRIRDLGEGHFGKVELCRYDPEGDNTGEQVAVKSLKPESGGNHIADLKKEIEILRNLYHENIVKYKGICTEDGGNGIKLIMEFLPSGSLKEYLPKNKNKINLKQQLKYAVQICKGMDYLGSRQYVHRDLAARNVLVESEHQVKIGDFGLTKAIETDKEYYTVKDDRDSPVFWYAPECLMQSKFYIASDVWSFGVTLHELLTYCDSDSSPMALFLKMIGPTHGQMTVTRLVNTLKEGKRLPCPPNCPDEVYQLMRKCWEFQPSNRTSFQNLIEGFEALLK
T2 sequence (P29597 whole entry): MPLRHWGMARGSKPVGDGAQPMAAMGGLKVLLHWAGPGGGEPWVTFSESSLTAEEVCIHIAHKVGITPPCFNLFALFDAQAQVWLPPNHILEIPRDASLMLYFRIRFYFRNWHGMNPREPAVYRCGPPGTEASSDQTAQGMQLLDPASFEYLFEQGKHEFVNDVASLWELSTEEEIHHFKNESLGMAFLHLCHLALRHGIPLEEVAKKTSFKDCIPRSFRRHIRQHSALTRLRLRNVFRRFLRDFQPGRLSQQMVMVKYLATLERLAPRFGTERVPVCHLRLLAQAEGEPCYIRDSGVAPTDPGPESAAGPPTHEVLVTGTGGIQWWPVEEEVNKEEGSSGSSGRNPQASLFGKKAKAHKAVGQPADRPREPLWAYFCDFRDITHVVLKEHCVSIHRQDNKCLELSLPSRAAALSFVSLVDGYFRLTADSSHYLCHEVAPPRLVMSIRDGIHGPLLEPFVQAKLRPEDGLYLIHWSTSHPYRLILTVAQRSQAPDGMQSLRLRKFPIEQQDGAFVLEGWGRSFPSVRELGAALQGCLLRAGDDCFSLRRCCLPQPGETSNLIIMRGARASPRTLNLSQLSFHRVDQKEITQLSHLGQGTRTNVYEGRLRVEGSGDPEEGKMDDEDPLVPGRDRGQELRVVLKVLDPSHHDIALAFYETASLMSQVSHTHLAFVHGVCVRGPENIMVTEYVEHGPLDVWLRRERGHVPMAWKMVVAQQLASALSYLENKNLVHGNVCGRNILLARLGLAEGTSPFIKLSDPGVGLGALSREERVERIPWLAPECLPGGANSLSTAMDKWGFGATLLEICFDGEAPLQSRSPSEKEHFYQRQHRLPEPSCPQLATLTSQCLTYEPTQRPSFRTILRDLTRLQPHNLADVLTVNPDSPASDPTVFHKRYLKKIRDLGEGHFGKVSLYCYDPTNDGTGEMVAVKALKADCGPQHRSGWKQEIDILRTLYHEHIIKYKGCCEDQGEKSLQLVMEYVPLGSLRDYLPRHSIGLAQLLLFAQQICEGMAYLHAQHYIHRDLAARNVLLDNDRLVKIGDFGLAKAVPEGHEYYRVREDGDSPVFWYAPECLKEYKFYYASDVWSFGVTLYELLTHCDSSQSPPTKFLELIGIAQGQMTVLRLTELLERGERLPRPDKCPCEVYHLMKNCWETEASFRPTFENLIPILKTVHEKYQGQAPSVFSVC
T1 sequence (O60674 whole entry): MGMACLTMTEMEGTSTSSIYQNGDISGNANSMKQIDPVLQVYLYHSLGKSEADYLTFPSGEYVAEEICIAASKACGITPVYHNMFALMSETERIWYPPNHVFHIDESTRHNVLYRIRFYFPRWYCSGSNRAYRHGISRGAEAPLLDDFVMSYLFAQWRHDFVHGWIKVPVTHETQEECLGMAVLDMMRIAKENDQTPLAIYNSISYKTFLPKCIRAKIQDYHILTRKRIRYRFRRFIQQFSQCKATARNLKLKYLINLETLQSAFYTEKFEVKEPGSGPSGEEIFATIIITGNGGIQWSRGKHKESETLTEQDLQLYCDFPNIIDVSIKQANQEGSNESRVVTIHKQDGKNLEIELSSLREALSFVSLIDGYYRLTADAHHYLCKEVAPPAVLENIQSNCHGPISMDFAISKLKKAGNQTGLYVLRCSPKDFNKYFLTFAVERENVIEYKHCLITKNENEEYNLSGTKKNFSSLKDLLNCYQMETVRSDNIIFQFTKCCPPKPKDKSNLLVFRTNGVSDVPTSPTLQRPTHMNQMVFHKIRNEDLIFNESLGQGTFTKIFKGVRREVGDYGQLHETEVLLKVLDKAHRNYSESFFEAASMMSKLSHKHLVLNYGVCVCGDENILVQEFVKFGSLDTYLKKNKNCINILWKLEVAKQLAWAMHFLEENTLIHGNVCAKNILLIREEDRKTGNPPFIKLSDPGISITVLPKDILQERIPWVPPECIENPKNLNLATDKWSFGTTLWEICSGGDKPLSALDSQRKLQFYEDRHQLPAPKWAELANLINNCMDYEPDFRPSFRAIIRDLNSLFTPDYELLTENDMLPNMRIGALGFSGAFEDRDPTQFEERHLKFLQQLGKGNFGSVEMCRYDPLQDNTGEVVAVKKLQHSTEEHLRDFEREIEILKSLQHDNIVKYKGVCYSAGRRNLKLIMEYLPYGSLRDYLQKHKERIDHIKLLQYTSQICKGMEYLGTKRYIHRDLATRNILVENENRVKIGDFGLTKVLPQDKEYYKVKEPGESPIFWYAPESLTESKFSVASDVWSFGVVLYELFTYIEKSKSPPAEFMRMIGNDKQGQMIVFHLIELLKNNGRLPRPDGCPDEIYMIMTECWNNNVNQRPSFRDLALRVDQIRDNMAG

In the case of `COC1(COc2cc(-c3ccc(O)c(F)c3)cc3[nH]ncc23)CN(C(=O)/C=C/CN(C)C)C1` [Compound 3-74], the Ki (JAK2) is reported as greater than 0.1 µM, the “combined stool score endpoint as compared with vehicle treated animals” value ([1]; 1 and 10 mg/kg only (PO, BID)) is reported as “statistically significant decrease” and the Ki (Tyk2) is reported as greater than 0.1 µM. For the same compound, the Ki (JAK1) was greater than 0.1 µM, the IC50 [2] was less than 0.0316 µM and the Ki (JAK3) was less than 0.0001 µM. For the same compound, the “JAK3 (pKi)-JAK1 (pKi)” value (JAK3; [3]) was “A (a value of 3 or above)”.

With `C=CC(=O)N1CC(C(C)(C)Oc2cc(-c3ccc(O)c(Cl)c3)nc3[nH]ncc23)C1` [Compound 3-80] the “JAK 2 (pKi)” value (JAK2) was “E (a pKi value of 7 or below (Ki of 100 nM or above))”, the “combined stool score endpoint as compared with vehicle treated animals” value ([1]; 3 mg/kg (PO, BID)) was “statistically significant decrease” and the “Tyk 2 (pKi)” value (Tyk2) was “E (a pKi value of 7 or below (Ki of 100 nM or above))”. The “JAK 1 (pKi)” value (JAK1) was “E (a pKi value of 7 or below (Ki of 100 nM or above))”, the “Tall-1 (pIC50)” value [2, 4] was “B (a pIC50 value between 6.7 (included) and 7.5 (IC50 between 200 nM and 32 nM))” and the “JAK 3 (pKi)” value (JAK3) was “A (a pKi value≥10 (Ki≤0.1 nM))”. The “JAK3 (pKi)-JAK1 (pKi)” value (JAK3; [3]) was “A (a value of 3 or above)”.

With `C=CC(=O)N1CC(C(C)(C)Oc2cc(-c3ccc(O)c(F)c3)nc3[nH]ncc23)C1` [Compound 3-81] the “JAK 2 (pKi)” value (JAK2) was “E (a pKi value of 7 or below (Ki of 100 nM or above))”, the “combined stool score endpoint as compared with vehicle treated animals” value ([1]; 3 mg/kg (PO, BID)) was “statistically significant decrease” and the “Tyk 2 (pKi)” value (Tyk2) was “E (a pKi value of 7 or below (Ki of 100 nM or above))”. For the same compound, the “JAK 1 (pKi)” value (JAK1) was “E (a pKi value of 7 or below (Ki of 100 nM or above))”, the “Tall-1 (pIC50)” value [2, 4] was “A (a pIC50 value≥7.5 (IC50≤32 nM))” and the “JAK 3 (pKi)” value (JAK3) was “A (a pKi value≥10 (Ki≤0.1 nM))”. The “JAK3 (pKi)-JAK1 (pKi)” value (JAK3; [3]) was “A (a value of 3 or above)”.

For `CC(C)N(C)C/C=C/C(=O)N1CC(COc2cc(-c3ccc(O)cc3)cc3[nH]ncc23)C1` [Compound 3-113], the Ki (JAK2) was 0.01 to 0.1 µM, the “combined stool score endpoint as compared with vehicle treated animals” value ([1]; 1 and 10 mg/kg only (PO, BID)) was “statistically significant decrease” and the Ki (Tyk2) was greater than 0.1 µM. The Ki (JAK1) was greater than 0.1 µM, the IC50 [2] was less than 0.0316 µM and the Ki (JAK3) was less than 0.0001 µM. The “JAK3 (pKi)-JAK1 (pKi)” value (JAK3; [3]) was “A (a value of 3 or above)”.

In the case of `CN(C)C/C=C/C(=O)N1CC(Oc2cc(-c3ccc(O)cc3)cc3[nH]ncc23)(C(F)F)C1` [Compound 5-10], the “combined stool score endpoint as compared with vehicle treated animals” value ([1]; 3 mg/kg (PO, BID)) is reported as “statistically significant decrease”, the “JAK 1 (pKi)” value (JAK1) is reported as “E (a pKi value of 7 or below (Ki of 100 nM or above))” and the “Tall-1 (pIC50)” value [2, 4] is reported as “B (a pIC50 value between 6.7 (included) and 7.5 (IC50 between 200 nM and 32 nM))”. The “JAK 3 (pKi)” value (JAK3) was “B (a pKi value between 9 and 10 (Ki between 1 nM and 0.1 nM))” and the “JAK3 (pKi)-JAK1 (pKi)” value (JAK3; [3]) was “A (a value of 3 or above)”.

For `C=CC(=O)N1CC2(CC(Oc3cc(-c4ccc(O)c(Cl)c4)cc4[nH]ncc34)C2)C1` [Compound 15-1], the “JAK 2 (pKi)” value (JAK2) was “E (a pKi value of 7 or below (Ki of 100 nM or above))”, the “combined stool score endpoint as compared with vehicle treated animals” value ([1]; 3 mg/kg (PO, BID)) was “statistically significant decrease” and the “Tyk 2 (pKi)” value (Tyk2) was “E (a pKi value of 7 or below (Ki of 100 nM or above))”. For the same compound, the “JAK 1 (pKi)” value (JAK1) was “E (a pKi value of 7 or below (Ki of 100 nM or above))”, the “Tall-1 (pIC50)” value ([2]; IL-2 stimulated pSTAT5, Tall-1 T cells) was “A (a pIC50 value≥7.5 (IC50≤32 nM))” and the “JAK 3 (pKi)” value (JAK3) was “B (a pKi value between 9 and 10 (Ki between 1 nM and 0.1 nM))”. The “JAK3 (pKi)-JAK1 (pKi)” value (JAK3; selectivity JAK3 over JAK1, difference of pKi) was “A (a value of 3 or above)”.
